Measured values from PubChem BioAssay AID624360 (Broad Institute, 2012).
Results filed as inconclusive are left out. Active and inactive are the calls of the source.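 Rule for the calls: active = fitted curve falls past -35% activity change at a concentration under twice the top valid dose, in every test run; inconclusive = test runs disagree, some active and some inactive; inactive = all test runs inactive, including signal rising instead of falling.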

Assay: inhibitors of IL-1beta-stimulated NF-kB luciferase reporter, dose response, selectivity assay for EBV LMP1 NF-kB inhibitor project, LMP1 TES2-inducible cells, dry powder (AID 624360)
Details: HEK293, 16 h

Row | Compound | AC35 [nM]
1 | CC12CCC3C(CC=C4CC(O)CCC43CO)C1CCC2OC(=O)c1ccccc1 (centres undefined) | 3880

Same assay, conditions: HEK293 IL-1beta-induced NF-kB luciferase reporter (LMP1 TES2-inducible cell line), 16 h

Row | Compound | AC35 [nM]
2 | C/C=C/C/C=C/CCC(=O)[C@H]1O[C@H]1C(N)=O | 7670
3 | C[C@H](CO)N1C[C@H](C)[C@H](CN(C)C(=O)Nc2ccc(C(F)(F)F)cc2)OCCCC[C@H](C)Oc2ccc(NC(=O)Nc3ccc(F)cc3)cc2C1=O | 7850
4 | Cc1cc(NC(=O)c2ccc3c(c2)OCCO3)no1 | 111000
5 | Cc1ccc(NC(=O)C2CCN(S(=O)(=O)c3ccc4c(c3)NC(=O)C(C)S4)CC2)cc1Cl (centres undefined) | 3670
6 | C/C(=N\NC(=S)N1CCCCCC1)c1ccccn1 | 213
7 | C/C(=N\NC(=S)N1CCCC1)c1ccccn1 | 156
8 | C/C(=N\NC(=S)Nc1ccccc1)c1ccccn1 | 522
9 | Fc1ccc2c(c1)c1nnc(SCCN3CCOCC3)nc1n2Cc1ccccc1 | 4490
10 | CC1CN(C(=O)CSc2nnc3c4ccccc4n(Cc4cccc(Cl)c4)c3n2)CCN1C(=O)c1ccccc1F (centres undefined) | 9280
11 | C[C@@H]1CN([C@@H](C)CO)C(=O)c2cccc(NC(=O)Nc3cccc4ccccc34)c2O[C@H]1CN(C)C(=O)Nc1ccc(C(F)(F)F)cc1 | 11400
12 | C[C@H](CO)N1C[C@H](C)[C@@H](CN(C)Cc2ccc(-c3ccccc3)cc2)Oc2ccc(NC(=O)Nc3cccc4ccccc34)cc2CC1=O | 4640
13 | C/C(=N\NC(=S)N1CC2CCC(CC2)C1)c1ccccn1 | 913
14 | COc1ccc2nc(Nc3nc(C)c(CCC(C)C)c(=O)[nH]3)nc(C)c2c1 | 2720
15 | C[C@@H]1CCCCO[C@H](CN(C)C(=O)NC2CCCCC2)[C@H](C)CN([C@@H](C)CO)C(=O)c2cc(NC(=O)C3CCCCC3)ccc2O1 | 11700
16 | COc1ccc2[nH]c(C(=O)N/N=C/c3ccc(O)cc3O)cc2c1 | 6480
17 | CCN1CCN(C(c2cccnc2)c2cc(Cl)c3cccnc3c2O)CC1 (centres undefined) | 5660

Row | Compound | AC35 [nM]
18 | Cc1ccc(S(=O)(=O)Nc2ccc3c(c2)C(=O)N([C@@H](C)CO)C[C@H](C)[C@@H](CN(C)C(=O)CCC(F)(F)F)OCCCC[C@H](C)O3)cc1 | 488
19 | COc1ccccc1[C@]1(C)ON(c2ccccc2C(F)(F)F)C1=O | 8170
20 | CC(C)=CCN(C(=O)C#Cc1ccccc1)[C@H](CO)c1ccccc1 | 2500
21 | C/C(=N\NC(=S)N1CCCCC1)c1ccccn1 | 168
22 | S=C(N/N=C(\c1ccccc1)c1ccccn1)N(Cc1ccccn1)Cc1ccccn1 | 769
23 | C/C(=N\NC(=S)N1CCC1)c1ccccn1 | 287
24 | C/C(=N\NC(=S)N1CCCCC1)c1cccc(C)n1 | 343
25 | CCC(Sc1nnc2c3ccccc3n(Cc3ccc(Br)cc3)c2n1)C(=O)NCCCN1CCOCC1 (centres undefined) | 2710
26 | Nc1ccn([C@@H]2O[C@H](CO)[C@@H](O)C2O)c(=O)n1 (some centres undefined) | 15800
27 | CCCSc1nnc2c3ccccc3n(Cc3ccccc3)c2n1 | 2610
28 | C/C(=N\NC(=S)N1CC2CCC(CC2)C1)c1cnccn1 | 86.2
29 | O=C1/C(=C/c2ccncc2)SC(=S)N1Cc1ccccc1 | 91500
30 | O=c1[nH]c(Nc2nc3ccccc3o2)nc2c1CCCC2 | 107000
31 | C[C@@H]1CN([C@@H](C)CO)C(=O)c2cc(NC(=O)Nc3ccc4c(c3)OCO4)ccc2O[C@H]1CN(C)CC1CCCCC1 | 2700
32 | C[C@H](CO)N1C[C@H](C)[C@@H](CN(C)CC2CC2)OCCCC[C@H](C)Oc2ccc(NC(=O)Nc3cccc4ccccc34)cc2C1=O | 1130
33 | S=C(NCc1ccccn1)N/N=C/c1ccccn1 | 1980

Same assay, conditions: HEK293 IL-1beta-induced NF-kB luciferase reporter (LMP1 TES2-inducible cell line), 16 h; at 15 µM (top of the series)

Row | Compound | activity change, negative = inhibition
34 | C=C1C[C@]23C[C@@]1(O)CC[C@H]2[C@@]12C=C[C@H](O)[C@@](C)(C(=O)O1)[C@H]2[C@@H]3C(=O)O | 13.6% (inactive)

Same assay, conditions: HEK293 IL-1beta-induced NF-kB luciferase reporter (LMP1 TES2-inducible cell line), 16 h; at 26 µM (top of the series)

Row | Compound | activity change, negative = inhibition
35 | Cc1c(NC(=O)c2cccc(NC(=O)COc3ccccc3C#N)c2)c(=O)n(-c2ccccc2)n1C | 14.8% (inactive)
36 | CCc1sc(C(=O)Nc2ncccc2O)cc1C | 6.99% (inactive)
37 | C=CCN1Cc2ccccc2[C@@H]2OC(c3ccc(OCCCO)cc3)=N[C@]2(CCC(=O)OC(C)(C)C)C1=O | 37.8% (inactive)
38 | CCc1ccc(/C=C2\SC(=S)N(CCCC(=O)Nc3ccccn3)C2=O)cc1 | 40.6% (inactive)
39 | C[C@@H]1CN([C@@H](C)CO)C(=O)c2cc(NC(=O)Nc3ccc(C(F)(F)F)cc3)ccc2O[C@@H](C)CCCCO[C@H]1CN(C)Cc1ccc(C(F)(F)F)cc1 | 12.7% (inactive)
40 | C[C@@H]1CCCCO[C@H](CN(C)S(=O)(=O)c2ccccc2)[C@@H](C)CN([C@@H](C)CO)C(=O)c2cc(N(C)C)ccc2O1 | 9.13% (inactive)
41 | c1ccc(-c2cn3c4c(sc3n2)CCCC4)cc1 | 8.88% (inactive)
42 | COc1ccc(-c2cc3nc4n(c(=O)c3s2)CCC4)cc1 | 19.5% (inactive)
43 | C[C@@H]1CCCCO[C@H](CN(C)CC2CCCCC2)[C@H](C)CN([C@@H](C)CO)C(=O)c2cc(NC(=O)NC3CCCCC3)ccc2O1 | -0.708% (inactive)
44 | COc1ccc(C(=O)Nc2ccc3[nH]ccc3c2)cc1 | 20.3% (inactive)
